# Reference: ChEMBL document CHEMBL4420060, “Combinatorial therapies for the treatment of neoplasias using the opioid growth factor receptor” (2013)
# Activity calls are given as the source filed them. No cut-off for these calls is given here.
# Key:
# MIA PaCa-2 [1] = test: Growth inhibition of human MIAPaCa2 cells assessed as decrease in cell number at 1 uM incubated for 96 hrs by MTS assay relative to control; assay type: functional
# UMSCC1 [2] = test: Growth inhibition of human UM-SCC-1 cells assessed as decrease in cell number at 1 uM by MTS assay relative to control; assay type: functional, cell-based
# MIA PaCa-2 [3] = test: Growth inhibition of human MIAPaCa2 cells assessed as decrease in cell number at 10 uM incubated for 24 hrs in presence of 1 uM OGF by MTS assay relative to control; assay type: functional
# MIA PaCa-2 [4] = test: Growth inhibition of human MIAPaCa2 cells assessed as decrease in cell number at 1 uM incubated for 72 hrs in presence of 1 uM OGF by MTS assay relative to control; assay type: functional; conditions: MIA PaCa-2, 72 h, read-out: GI
# MIA PaCa-2 [5] = test: Growth inhibition of human MIAPaCa2 cells assessed as decrease in cell number at 10 uM incubated for 96 hrs in presence of 1 uM OGF by MTS assay relative to control; assay type: functional
# MIA PaCa-2 [6] = test: Growth inhibition of human MIAPaCa2 cells assessed as decrease in cell number at 1 uM incubated for 24 to 96 hrs in presence of 1 uM OGF by MTS assay relative to control; assay type: functional; design: scale not given: the % may be the effect or the level left
# MIA PaCa-2 [7] = test: Growth inhibition of human MIAPaCa2 cells assessed as decrease in cell number at 1 uM incubated for 24 hrs in presence of 1 uM OGF by MTS assay relative to control; assay type: functional; conditions: MIA PaCa-2, 24 h, read-out: GI
# MIA PaCa-2 [8] = test: Growth inhibition of human MIAPaCa2 cells assessed as decrease in cell number at 10 uM incubated for 72 hrs in presence of 1 uM OGF by MTS assay relative to control; assay type: functional
# MIA PaCa-2 [9] = test: Growth inhibition of human MIAPaCa2 cells assessed as decrease in cell number at 1 uM incubated for 48 hrs in presence of 1 uM OGF by MTS assay relative to control; assay type: functional; conditions: MIA PaCa-2, 48 h, read-out: GI
# MIA PaCa-2 [10] = test: Growth inhibition of human MIAPaCa2 cells assessed as decrease in cell number at 10 uM incubated for 48 hrs in presence of 1 uM OGF by MTS assay relative to control; assay type: functional
# MIA PaCa-2 [11] = test: Growth inhibition of human MIAPaCa2 cells assessed as decrease in cell number at 1 uM incubated for 48 to 96 hrs by MTS assay relative to control; assay type: functional; design: scale not given: the % may be the effect or the level left
# UMSCC1 [12] = test: Growth inhibition of human UM-SCC-1 cells assessed as decrease in cell number at 0.1 uM incubated for 96 hrs in presence of 1 uM OGF by MTT assay relative to control; assay type: functional
# UMSCC1 [13] = test: Antitumor activity against human UM-SCC-1 cells xenografted in nu/nu mouse assessed as mouse mortality at 8 mg/kg dosed every other day measured on day 40 co-treated with 10 mg/kg/day OGF relative to control; assay type: functional, organism-based
# UMSCC1 [14] = test: Induction of apoptosis in human UM-SCC-1 cells assessed as increase in caspse-3 levels at 0.01 uM incubated for 1 day by flow cytometry; assay type: functional, cell-based
# CAL-27 [15] = test: Growth inhibition of human CAL27 cells assessed as decrease in cell number at 0.0001 uM with drug and media changed daily in presence of 1 uM OGF incubated for 48 hrs by MTS assay relative to control; assay type: functional
# UMSCC1 [16] = test: Antitumor activity against human UM-SCC-1 cells xenografted in nu/nu mouse assessed as mouse mortality at 8 mg/kg dosed every other day measured on day 19 relative to control; assay type: functional, organism-based
# UMSCC1 [17] = test: Antitumor activity against human UM-SCC-1 cells xenografted in nu/nu mouse assessed as reduction in tumor at 8 mg/kg dosed every other day and co-treated with 10 mg/kg/day OGF measured on 6th day of measurable tumors relative to control; assay type: functional; design: scale not given: the % may be the effect or the level left
# UMSCC1 [18] = test: Antitumor activity against human UM-SCC-1 cells xenografted in nu/nu mouse assessed as reduction in tumor at 8 mg/kg dosed every other day and co-treated with at 10 mg/kg/day OGF measured on 16th to 20th day of measurable tumors relative to control; assay type: functional, organism-based
# UMSCC1 [19] = test: Induction of apoptosis in human UM-SCC-1 cells assessed as increase in caspse-3 levels at 0.01 uM in presence of 1 uM OGF incubated for 6 days by flow cytometry; assay type: functional
# UMSCC1 [20] = test: Growth inhibition of human UM-SCC-1 cells assessed as decrease in cell number at 0.01 uM in presence of 1 uM OGF incubated for 48 hrs followed by compound wash out by 50% replacement of media and measured after 48 hrs by MTS assay relative to control; assay type: functional, cell-based
# UMSCC1 [21] = test: Induction of apoptosis in human UM-SCC-1 cells assessed as increase in caspse-3 levels at 0.01 uM incubated for 6 days by flow cytometry; assay type: functional
# UMSCC1 [22] = test: Antitumor activity against human UM-SCC-1 cells xenografted in nu/nu mouse assessed as reduction in tumor measured on 22nd to 36th day of measurable tumors at 8 mg/kg dosed every other day relative to control; assay type: functional, organism-based
# UMSCC1 [23] = test: Growth inhibition of human UM-SCC-1 cells assessed as decrease in cell number at 0.01 uM in presence of 1 uM OGF incubated for 96 hrs by MTS assay relative to control; assay type: functional
# UMSCC1 [24] = test: Antitumor activity against human UM-SCC-1 cells xenografted in nu/nu mouse assessed as reduction in tumor at 8 mg/kg dosed every other day and co-treated with 10 mg/kg/day OGF measured on 22nd to 36th day of measurable tumors relative to control; assay type: functional, organism-based
# UMSCC1 [25] = test: Growth inhibition of human UM-SCC-1 cells assessed as decrease in cell number at 0.1 uM incubated for 72 hrs in presence of 1 uM OGF by MTT assay relative to control; assay type: functional
# UMSCC1 [26] = test: Growth inhibition of human UM-SCC-1 cells assessed as decrease in cell number at 0.01 uM in presence of 1 uM OGF incubated for 72 hrs by MTS assay relative to control; assay type: functional
# UMSCC1 [27] = test: Antitumor activity against human UM-SCC-1 cells xenografted in nu/nu mouse assessed as latency time for measurable (62.5 mm3) tumors at 8 mg/kg dosed every other day (Rvb <=2 weeks); assay type: functional
# UMSCC1 [28] = test: Induction of apoptosis in human UM-SCC-1 cells assessed as increase in caspse-3 levels at 0.01 uM in presence of 1 uM OGF incubated for 1 to 3 days by flow cytometry; assay type: functional
# UMSCC1 [29] = test: Antitumor activity against human UM-SCC-1 cells xenografted in nu/nu mouse assessed as latency time for measurable (62.5 mm3) tumors at 8 mg/kg dosed every other day and co-treated with 10 mg/kg/day OGF (Rvb <=2 weeks); assay type: functional
# UMSCC1 [30] = test: Growth inhibition of human UM-SCC-1 cells assessed as decrease in cell number at 0.01 uM incubated for 48 hrs followed by compound wash out by 50% replacement of media and measured after 48 hrs by MTS assay relative to control; assay type: functional, cell-based
# UMSCC1 [31] = test: Inhibition of DNA synthesis in human UM-SCC-1 cells assessed as reduction in BrdU incorporation at 0.01 uM in presence of 1 uM OGF incubated for 72 hrs by fluorescence microscopy; assay type: functional
# UMSCC1 [32] = test: Antitumor activity against human UM-SCC-1 cells xenografted in nu/nu mouse assessed as time duration for delay in visible tumor development at 8 mg/kg dosed every other day and co-treated with 10 mg/kg/day OGF relative to control; assay type: functional
# UMSCC1 [33] = test: Antitumor activity against human UM-SCC-1 cells xenografted in nu/nu mouse assessed as reduction in tumor at 8 mg/kg dosed every other day and co-treated with 10 mg/kg/day OGF measured on 4th day of measurable tumors relative to control; assay type: functional; design: scale not given: the % may be the effect or the level left
# UMSCC1 [34] = test: Antitumor activity against human UM-SCC-1 cells xenografted in nu/nu mouse assessed as reduction in tumor measured on 6th day of measurable tumors at 8 mg/kg dosed every other day relative to control; assay type: functional; design: scale not given: the % may be the effect or the level left
# [35] = Toxicity in mouse xenografted with human UM-SCC-1 cells assessed as distension of abdomens with associated megacolon at 8 mg/kg dosed every other day by histological analysis; assay type: organism-based; conditions: in vivo
# UMSCC1 [36] = test: Growth inhibition of human UM-SCC-1 cells assessed as decrease in cell number at 0.01 uM incubated for 96 hrs in presence of 1 uM OGF by MTT assay relative to control; assay type: functional
# UMSCC1 [37] = test: Growth inhibition of human UM-SCC-1 cells assessed as decrease in cell number at 0.01 uM in presence of 1 uM OGF and 1 uM opioid antagonist naloxone incubated for 24 to 96 hrs by MTS assay relative to control; assay type: functional
# [38] = Toxicity in mouse xenografted with human UM-SCC-1 cells assessed as induction of stool hardening at 8 mg/kg dosed every other day by histological analysis; assay type: organism-based; conditions: in vivo
# CAL-27 [39] = test: Growth inhibition of human CAL27 cells assessed as decrease in cell number at 0.0001 uM with drug and media changed daily incubated for 48 hrs by MTS assay relative to control; assay type: functional; conditions: CAL-27, 48 h, read-out: GI
# UMSCC1 [40] = test: Growth inhibition of human UM-SCC-1 cells assessed as decrease in cell number at 0.01 uM incubated for 72 hrs in presence of 1 uM OGF by MTT assay relative to control; assay type: functional
# UMSCC1 [41] = test: Growth inhibition of human UM-SCC-1 cells assessed as decrease in cell number at 0.01 uM in presence of 1 uM OGF incubated for 48 hrs by MTS assay relative to control; assay type: functional
# [42] = Toxicity in mouse xenografted with human UM-SCC-1 cells assessed as effect on large intestine/cecum/small bowel at 8 mg/kg dosed every other day by histological analysis; assay type: organism-based; conditions: in vivo
smiles,measurement,setting,value
NC(=O)[C@H](Cc1ccccc1)NC(=O)[C@H](Cc1c[nH]c2ccccc12)NC(=O)[C@@H]1CCCN1C(=O)[C@@H](N)Cc1ccc(O)cc1,growth inhibition (GI),MIA PaCa-2 [1],inactive
same,growth inhibition (GI),UMSCC1 [2],inactive
NC(=O)[C@H](Cc1ccccc1)NC(=O)[C@H](Cc1ccccc1)NC(=O)[C@@H]1CCCN1C(=O)[C@@H](N)Cc1ccc(O)cc1,growth inhibition (GI),MIA PaCa-2 [1],inactive
same,growth inhibition (GI),UMSCC1 [2],inactive
O=c1[nH]cc(F)c(=O)[nH]1 [FLUOROURACIL],growth inhibition (GI),MIA PaCa-2 [3],21.5%
same,inhibition of growth at 1 µM,MIA PaCa-2 [4],23.6%
same,growth inhibition (GI),MIA PaCa-2 [5],47.4%
same,Activity,MIA PaCa-2 [6],13 - 30%
same,inhibition of growth at 1 µM,MIA PaCa-2 [7],13.2%
same,growth inhibition (GI),MIA PaCa-2 [8],39.7%
same,inhibition of growth at 1 µM,MIA PaCa-2 [9],22.2%
same,growth inhibition (GI),MIA PaCa-2 [10],35.7%
same,Activity,MIA PaCa-2 [11],11 - 15%
CC(=O)O[C@H]1C(=O)[C@@]2(C)[C@H]([C@H](OC(=O)c3ccccc3)[C@]3(O)C[C@H](OC(=O)[C@H](O)[C@@H](NC(=O)c4ccccc4)c4ccccc4)C(C)=C1C3(C)C)[C@]1(OC(C)=O)CO[C@@H]1C[C@@H]2O [PACLITAXEL],growth inhibition (GI),UMSCC1 [12],78.4%
same,Activity,UMSCC1 [13],Active
same,Activity,UMSCC1 [14],inactive
same,growth inhibition (GI),CAL-27 [15],61%
same,Activity,UMSCC1 [16],inactive
same,Activity,UMSCC1 [17],29 - 33%
same,Activity,UMSCC1 [18],Active
same,fold change (FC),UMSCC1 [19],13.9
same,growth inhibition (GI),UMSCC1 [20],Active
same,fold change (FC),UMSCC1 [21],2.7
same,Activity,UMSCC1 [22],inactive
same,growth inhibition (GI),UMSCC1 [23],69%
same,Activity,UMSCC1 [24],Active
same,growth inhibition (GI),UMSCC1 [25],68.4%
same,growth inhibition (GI),UMSCC1 [26],63%
same,Time,UMSCC1 [27],<=12 day
same,fold change (FC),UMSCC1 [28],5.6
same,Time,UMSCC1 [29],17 days
same,growth inhibition (GI),UMSCC1 [30],Active
same,inhibition (INH),UMSCC1 [31],16%
same,Time,UMSCC1 [32],4 days
same,Activity,UMSCC1 [33],29%
same,Activity,UMSCC1 [34],29 - 33%
same,Activity,[35],Toxic
same,growth inhibition (GI),UMSCC1 [36],36.3%
same,growth inhibition (GI),UMSCC1 [37],8.8 - 26%
same,Activity,[38],Toxic
same,inhibition of growth at 0.0001 µM,CAL-27 [39],22 to 35%
same,growth inhibition (GI),UMSCC1 [40],30.6%
same,growth inhibition (GI),UMSCC1 [41],48%
same,Activity,[42],Toxic
